Experimental data from patent US10745414B2, “Crystal salt form of 2,2-dimethyl-6-((4-((3,4,5-trimethoxyphenyl)amino)-1,3,5-triazine-2-yl)amino)-2H-pyrido[3,2-b][1,4]oxazine-3(4H)-one for human use” (LIMITED “MOLECULAR TECHNOLOGIES”, priority 2016, dated 2020).

Legend:
[1] = pharmacokinetics in blood plasma after oral administration in Wistar rats; conditions: rat, in vivo
Method: At the first stage, pharmacokinetics of the Compound 1 free base was studied after oral administration in Wistar rats at dosage of 30 mg/kg.
Pharmacokinetics of several Compound 1 salt forms was studied after oral administration in Wistar rats at a dose of 37 mg/kg (30 mg/kg equivalent to a free base).

[2] = pharmacokinetics in rabbits at single administration; type: in vivo; conditions: 50 mg/kg
[3] = tested on: mature human osteoclasts; assay: osteoclast-mediated resorption of mineralized matrix; type: cell-based; conditions: 1.1 μM and 10 μM, 48 hours
Method: The study was carried out following the method below: CD15+ monocytes (osteoclast precursor cells) were cultivated for 3 days in a proliferation medium (Igla α-modified minimum essential medium/fetal calf serum (aMEM/FCS), 10% with 25 ng/ml of macrophage colony-stimulating factor (M-CSF)). During this stage M-CSF promoted proliferation and expression of a receptor activator of nuclear factor KB (RANK, cappa-B, type I membrane protein). The proliferation medium was removed and cells were differentiated in a differentiation medium (aMEM/FCS-10% with 100 ng/ml of RANKL and 25 ng/ml of M-CSF). When mature osteoclasts were detected in the culture (day 4 of the study), the cells were collected and re-inoculated into a 96-well plate coated with a synthetic mineralized matrix. Cultivation continued for 48 hours (at presence of the studied compounds) to evaluate osteoclast resorption. Then number of mature osteoclasts and the resorption degree were evaluated. An effect of 4-methylbenzenesulfonic acid and Compound 1 salt concentration on concentration and resorption degree of mature osteoclasts was evaluated in comparison with control samples ([…] control, 0.3% DMSO solvent) and reference inhibitors, i.e., saracatinib and bosutinib (see FIG. 18).

[4] = pharmacokinetics in blood plasma after oral administration in Wistar rats; conditions: rat, in vivo, 21 mg/kg
[5] = tested on: Sprague-Dawley rat models of osteoarthritis induced by intra-articular introduction of sodium iodoacetate; assay: mechanical allodynia test with von Frey filaments in osteoarthritis induced by sodium iodoacetate; type: in vivo
Method: The intra-articular introduction of aerobic glycolysis inhibitor (sodium iodoacetate) results in death of chondrocytes and acute inflammatory reaction in a synovial cavity. In absence of treatment, at day 10 from the pathology induction an onset of chronic pain is observed due to cartilage destruction and development of chronic inflammation in particular cases [J Musculoskel Neuron Interact 2001; 1(4):363-376]. Extent of osteoarthritis development in rats was evaluated by comparison of extremity pain sensitivity threshold after the introduction of sodium iodoacetate versus background measurements taken before the pathology induction. The threshold of the pain sensitivity was evaluated by mechanical allodynia test using von Frey filaments (see Table 8).
For the purposes of the study, rat males weighing 150 to 200 g were selected. All the animals underwent acclimatization for 14 days. The animals were housed in a polycarbonate cages of 3H type manufactured by Charles River laboratories Inc according to COST R 53434-2009. 12-hours lighting regimen was maintained. The animals had access to food and water ad libitum. The pathology was induced by introduction of 50 μl solution containing 2 mg of sodium iodoacetate into a synovial cavity of the animal knee joints. Tactile allodynia induced by a mechanical irritation was evaluated using von Frey filaments weighing 0.06 to 23.96 g. The test was repeated five times for each filament at intervals of 1 to 2 s. The sensitivity threshold was considered as a minimum reaction threshold provoking paw withdrawal in one of five repeats.

[6] = distribution across organs and tissues in rats; type: in vivo
Method: When the 4-methylbenzenesulfonic acid and Compound 1 salt hydrate is administered intragastrically at dosages 30 to 200 mg/kg, the Compound 1 concentration in rat blood plasma increases in proportion to the dose. High concentrations of the Compound 1 was found almost in all the tissues studied and reached maximum at 2 to 4 hours after 4-methylbenzenesulfonic acid and Compound 1 salt hydrate administration.

- time of reaching maximum concentration in blood [1]: 1.1 to 1.3 h
- elimination half-time [2]: more than 7 hours
- Cmax [4]: 416 ng/mL
- daily average concentration in bone and cartilage tissues versus daily average concentration in blood plasma ([6]; intragastric): more than three times
SMILES: COc1cc(Nc2ncnc(Nc3ccc4c(n3)NC(=O)C(C)(C)O4)n2)cc(OC)c1OC.Cc1ccc(S(=O)(=O)O)cc1.O [monohydrate of 4-methylbenzenesulfonic acid and 2,2-dimethyl-6-((4-((3,4,5-trimethoxyphenyl)amino)-1,3,5-triazine-2-yl)amino)-2H-pyrido[3,2-b][1,4]oxazine-3(4H)-one base]
- effect on osteoclast-mediated resorption of the mineralized matrix [3]: profound statistically significant inhibitory effect
- Reaction threshold value, % of control ([5]; 100 mg/kg intragastric, days 0-28 (daily), day 14 from pathology induction): 106 % of control
- Reaction threshold value, % of control ([5]; 100 mg/kg intragastric, days 0-28 (daily), day 21): 80 % of control
- Reaction threshold value, % of control ([5]; 100 mg/kg intragastric, days 0-28 (daily), day 28): 106 % of control
- Reaction threshold value, % of control ([5]; 100 mg/kg intragastric, days 7-28 (daily), day 14): 70 % of control
- Reaction threshold value, % of control ([5]; 100 mg/kg intragastric, days 7-28 (daily), day 21): 75 % of control
- Reaction threshold value, % of control ([5]; 100 mg/kg intragastric, days 7-28 (daily), day 28): 73 % of control
- Reaction threshold value, % of control ([5]; 500 mg/kg intragastric, days 0-28 (daily), day 14): 114 % of control
- Reaction threshold value, % of control ([5]; 500 mg/kg intragastric, days 0-28 (daily), day 21): 106 % of control
- Reaction threshold value, % of control ([5]; 500 mg/kg intragastric, days 0-28 (daily), day 28): 107 % of control
- Reaction threshold value, % of control ([5]; 500 mg/kg intragastric, days 7-28 (daily), day 14): 76 % of control
- Reaction threshold value, % of control ([5]; 500 mg/kg intragastric, days 7-28 (daily), day 21): 91 % of control
- Reaction threshold value, % of control ([5]; 500 mg/kg intragastric, days 7-28 (daily), day 28): 118 % of control
- mechanical allodynia onset ([5]; 100 and 500 mg/kg from day of pathology induction, 500 mg/kg from the seventh day): Total arrest of mechanical allodynia onset
- tissue with lowest concentration [6]: lowest concentration of the Compound 1 was registered in muscles
